Measured values reported in patent publication US7309817B2, “Plant alpha farnesene synthase and polynucleotides encoding same” (The Horticulture and Food Research Institute of New Zealand …, priority 2002, dated 2007).

Tests used:
alpha-farnesene synthase = target: T1, alpha-farnesene synthase (Malus domestica, UniProt Q84LB2, A297S/I281F); type: biochemical; settings: for Vrel (%), relative activity due to additions of metal ions: saturating FDP, Mg 7 mM, Mn 150 μM, KCl or NaCl 50 mM
T1 construct: a cDNA fragment encoding EST57400 was excised from pBK-CMV57400 using a EcoRI restriction endonuclease site immediately adjacent to the start ATG; His6 (from vector pET-30a) (N); made in house; host or cells: E. coli BL21-CodonPlus-RIL
Protocol: Kinetic Studies: For kinetic studies, alpha-farnesene synthase active protein that had been induced in culture and purified as described for protein optimisation was added to a minimal assay buffer containing 50 mM Bis-Tris-Propane (pH 7.5), 10% (v/v) glycerol, 1 mM DTT and 0.1% (v/v) Tween-20. […] One mL assays containing 1-2 μg of protein were overlaid with 0.6 mL pentane and incubated in 1.5 mL microfuge tubes for 2 hours at 30° C. and 150 rpm. All assays were performed in triplicate. Following incubation assays were immediately placed on ice and a 200 μL aliquot of the pentane layer removed for analysis. The aliquots were added to 1.5 mL microfuge tubes containing […] Organic Counting Scintillant (OCS) (Amersham) and vortexed briefly. Scintillation analysis was performed using a Wallac 1409 Liquid Scintillation Counter (^3H efficiency≈70%).
The effect on enzyme activity of metal co-factors with and without salts was also tested. Mg^2+ and Mn^2+ were added in the presence and absence of 50 mM KCL and 50 mM NaCl in all possible combinations. Controls included incubation without enzyme, with enzyme but without metal ion cofactors and with enzyme and cofactors in the presence of 10 mM EDTA.
Kinetic constants were determined from the DPM data by nonlinear regression using the Origin50 graphics package. […] All experiments were carried out at least twice.

[1] = tested on: other sesquiterpene synthases; settings: other sesquiterpene synthases (Cai et al 2002, Steele et al 1998); read-out: Km reported in the literature; cited from earlier work
[2] = tested on: CC(C)=CCC/C(C)=C/CC/C(C)=C/CO[P@@](=O)(O)OP(=O)(O)O; assay: purified protein, by the assay type; settings: other: protein stored at -80 C for 9 months; pH 7.5
[3] = Storage stability of purified recombinant alpha-farnesene synthase at -80 C; type: physicochemical
Protocol: Characterization of alpha-farnesene synthase from bacterial extracts and partially purified alpha-farnesene synthase recombinant protein: Cultures were set up, grown and induced as above. Following induction, cultures were immediately transferred to a 24° C. incubator and allowed to grow for a further 18-20 hours with continuous agitation and then cells harvested by centrifugation (2000×g for 10 min). […] The remainder of the extract (15 ml) was applied to PD-10 gel filtration columns (Amersham-Pharmacia Biotech) pre-equilibrated with either binding or extraction buffer (DTT omitted). Eluent fractions were then pooled and purification of recombinant protein was carried out in a single step using immobilised metal affinity chromatography (IMAC). The eluent was applied to a Hi-Trap Chelating HP column (Amersham-Pharmacia Biotech) charged with Ni^+. Non bound proteins were removed and recombinant protein was eluted following the manufacturer's specifications. […] Headspace volatiles were collected as in the bacterial cultures. Aliquots of the remaining recombinant protein were stored at −80° C. in 20% glycerol until required.
Protein concentration was determined from the extinction coefficient (VectorNTI version 8) and the purified extract adjusted to ˜1 mg protein/mL with His6 elution buffer containing 10% glycerol and 1 mM DTT. […]

[Mg+2] [Mg^2+]
inhibition of activity at high Mg2+ concentration (alpha-farnesene synthase; 25 mM Mg2+): 23% | Vrel (%), relative activity due to additions of metal ions (alpha-farnesene synthase): 16% | Km [1]: 70 to 150 µM

[Mn+2] [Mn^2+]
inhibition of activity at high Mn2+ concentration (alpha-farnesene synthase; >800 μM Mn2+): at least 50% | Vrel (%), relative activity due to additions of metal ions (alpha-farnesene synthase): 13% | Km [1]: 7 to 30 µM

alpha-farnesene synthase (Malus domestica; A297S/I281F)
Km [2]: 1.5 µM

B1: alpha-farnesene synthase: recombinant His-tagged sesquiterpene synthase from apple (Malus domestica Royal Gala) skin, expressed in E. coli (protein, listed as Malus domestica)
chain: MEFRVHLQADNEQKIFQNQMKPEPEASYLINQRRSANYKPNIWKNDFLDQSLISKYDGDEYRKLSEKLIEEVKIYISAETMDLVAKLELIDSVRKLGLANLFEKEIKEALDSIAAIESDNLGTRDDLYGTALHFKILRQHGYKVSQDIFGRFMDEKGTLENHHFAHLKGMLELFEASNLGFEGEDILDEAKASLTLALRDSGHICYPDSNLSRDVVHSLELPSHRRVQWFDVKWQINAYEKDICRVNATLLELAKLNFNVVQAQLQKNLREASRWWANLGFADNLKFARDRLVECFSCAVGVAFEPEHSSFRICLTKVINLVLIIDDVYDIYGSEEELKHFTNAVDRWDSRETEQLPECMKMCFQVLYNTTCEIAREIEEENGWNQVLPQLTKVWADFCKALLVEAEWYNKSHIPTLEEYLRNGCISSSVSVLLVHSFFSITHEGTKEMADFLHKNEDLLYNISLIVRLNNDLGTSAAEQERGDSPSSIVCYMREVNASEETARKNIKGMIDNAWKKVNGKCFTTNQVPFLSSFMNNATNMARVAHSLYKDGDGFGDQEKGPRTHILSLLFQPLVN
modifications: His tag
notes: recombinant His-tagged sesquiterpene synthase from apple (Malus domestica Royal Gala) skin, expressed in E. coli
temperature of maximum activity (alpha-farnesene synthase; 7 mM Mg, 150 μM Mn, 25 μM FDP, FIG. 14): 37 °C | loss of activity on storage ([3]; stored at -80 C for 9 months): 92.5% | loss of activity on storage ([3]; stored in glycerol for 4 weeks at -80 C): 15%
